Each structure is given as a SMILES string. Calls of active or inactive are those of the source. No rule for the calls is given here.

The data set has as its system rodent carcinogenicity bioassays, tumor incidence. In words: CCRIS carcinogenicity studies. A digest of the protocol: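 Archive of carcinogenicity, mutagenicity, tumor promotion and tumor inhibition results drawn from journals, NCI reports and other sources, expert-reviewed; covers 1985-2011 and is no longer updated.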

For `C/C=C/c1ccc2c(c1)OCO2`, the carcinogen call (Species: MOUSE, Strain/Sex: B6C3F1/MALE,FEMALE, Route: GAVAGE/ORAL, Dose: 215 MG/KG FROM D 6= 28 OF LIFE THEN 517 MG/KG IN DIET, Tumor Site: Type of Lesion: LIVER) was “active; positive” and the carcinogen call (Species: RAT, Route: ORAL, Dose: 1000, 2500, 5000, 10000 MG/KG IN DIET FOR 2 YR, Dose: 1000, 2500, 5000, 10000 MG/KG IN DIET FOR 2 YR, Tumor Site: Type of Lesion: LIVER: HEPATOCELLULAR ADENOMA, CARCINOMA) was “active; positive”.

Take `CBr`: the carcinogen call is “inactive; negative” (Species: DOG, Strain/Sex: BEAGLE/FEMALE, Route: ORAL, Dose: 0, 0.07, 0.12, 0.27 MG/KG/D IN DIET FOR 1 YR (STUDY DURATION: 1 YR), Dose: 0, 0.07, 0.12, 0.27 MG/KG/D IN DIET FOR 1 YR (STUDY DURATION: 1 YR)); “inactive; negative” (Species: DOG, Strain/Sex: BEAGLE/MALE, Route: ORAL, Dose: 0, 0.06, 0.13, 0.28 MG/KG/D IN DIET FOR 1 YR (STUDY DURATION: 1 YR), Dose: 0, 0.06, 0.13, 0.28 MG/KG/D IN DIET FOR 1 YR (STUDY DURATION: 1 YR)); “inactive; negative” (Species: MOUSE, Strain/Sex: B6C3F1/FEMALE, Route: INHALATION, Dose: 0, 10, 33, 100 PPM 6 HR/D 5 D/WK FOR UP TO 103 WK, DOSING IN 100 PPM GROUP DISCONTINUED AFTER 20 WK (STUDY DURATION: 104, Dose: 0, 10, 33, 100 PPM 6 HR/D 5 D/WK FOR UP TO 103 WK, DOSING IN 100 PPM GROUP DISCONTINUED AFTER 20 WK (STUDY DURATION: 104); “inactive; negative” (Species: MOUSE, Strain/Sex: B6C3F1/MALE, Route: INHALATION, Dose: 0, 10, 33, 100 PPM 6 HR/D 5 D/WK FOR UP TO 103 WK, DOSING IN 100 PPM GROUP DISCONTINUED AFTER 20 WK (STUDY DURATION: 104, Dose: 0, 10, 33, 100 PPM 6 HR/D 5 D/WK FOR UP TO 103 WK, DOSING IN 100 PPM GROUP DISCONTINUED AFTER 20 WK (STUDY DURATION: 104); “inactive; negative” (Species: MOUSE, Strain/Sex: BDF1/FEMALE, Route: INHALATION, Dose: 0, 4, 16, 64 PPM 6 HR/D 5 D/WK FOR 104 WK (STUDY DURATION: 105 WK), Dose: 0, 4, 16, 64 PPM 6 HR/D 5 D/WK FOR 104 WK (STUDY DURATION: 105 WK)); “inactive; negative” (Species: MOUSE, Strain/Sex: BDF1/MALE, Route: INHALATION, Dose: 0, 4, 16, 64 PPM 6 HR/D 5 D/WK FOR 104 WK (STUDY DURATION: 105 WK), Dose: 0, 4, 16, 64 PPM 6 HR/D 5 D/WK FOR 104 WK (STUDY DURATION: 105 WK)). Moreover, the carcinogen call is, setting by setting: (Species: RAT, Strain/Sex: F344/FEMALE, Route: INHALATION, Dose: 0, 4, 20, 100 PPM 6 HR/D 5 D/WK FOR 104 WK (STUDY DURATION: 105 WK), Dose: 0, 4, 20, 100 PPM 6 HR/D 5 D/WK FOR 104 WK (STUDY DURATION: 105 WK)) “inactive; negative”; (Species: RAT, Strain/Sex: F344/FEMALE, Route: ORAL) “inactive; negative”; (Species: RAT, Strain/Sex: F344/MALE, Route: INHALATION, Dose: 0, 4, 20, 100 PPM 6 HR/D 5 D/WK FOR 104 WK (STUDY DURATION: 105 WK), Dose: 0, 4, 20, 100 PPM 6 HR/D 5 D/WK FOR 104 WK (STUDY DURATION: 105 WK)) “inactive; negative”; (Species: RAT, Strain/Sex: F344/MALE, Route: ORAL) “inactive; negative”; (Species: RAT, Strain/Sex: WISTAR/FEMALE, Route: GAVAGE, Dose: 0.4, 2, 10, 50 MG/KG IN ARACHIS OIL 5/WK FOR 13 WK, Dose: 0.4, 2, 10, 50 MG/KG IN ARACHIS OIL 5/WK FOR 13 WK, Tumor Site: Type of Lesion: FORESTOMACH: CARCINOMA) “active; positive”; (Species: RAT, Strain/Sex: WISTAR/FEMALE, Route: INHALATION, Dose: 0, 3, 30, 90 PPM 6 HR/D 5 D/WK FOR 29 MO (STUDY DURATION: 29 MO), Dose: 0, 3, 30, 90 PPM 6 HR/D 5 D/WK FOR 29 MO (STUDY DURATION: 29 MO)) “inactive; negative”. Also, the carcinogen call (Species: RAT, Strain/Sex: WISTAR/MALE, Route: GAVAGE, Dose: 0.4, 2, 10, 50 MG/KG IN ARACHIS OIL 5/WK FOR 13 WK, Dose: 0.4, 2, 10, 50 MG/KG IN ARACHIS OIL 5/WK FOR 13 WK, Tumor Site: Type of Lesion: FORESTOMACH: PAPILLOMA, CARCINOMA) is “active; positive” and the carcinogen call (Species: RAT, Strain/Sex: WISTAR/MALE, Route: INHALATION, Dose: 0, 3, 30, 90 PPM 6 HR/D 5 D/WK FOR 29 MO (STUDY DURATION: 29 MO), Dose: 0, 3, 30, 90 PPM 6 HR/D 5 D/WK FOR 29 MO (STUDY DURATION: 29 MO)) was “inactive; negative”.

Regarding `COC(=O)N/N=C/c1c[n+]([O-])c2ccccc2[n+]1[O-]`, the carcinogen call was “active; positive” (Species: RAT, Strain/Sex: WISTAR/FEMALE, Route: ORAL, Dose: 0, 50, 100, 250, 500 PPM IN DIET FOR 12 MO (STUDY DURATION: 12 MO), Dose: 0, 50, 100, 250, 500 PPM IN DIET FOR 12 MO (STUDY DURATION: 12 MO), Tumor Site: Type of Lesion: LIVER: HEPATOCELLULAR CARCINOMA) and “active; positive” (Species: RAT, Strain/Sex: WISTAR/MALE, Route: ORAL, Dose: 0, 50, 100, 250, 500 PPM IN DIET FOR 12 MO (STUDY DURATION: 12 MO), Dose: 0, 50, 100, 250, 500 PPM IN DIET FOR 12 MO (STUDY DURATION: 12 MO), Tumor Site: Type of Lesion: LIVER: HEPATOCELLULAR CARCINOMA).

Consider `CCOP(=S)(OCC)Oc1ccc([N+](=O)[O-])cc1`, for which the carcinogen call is, setting by setting: (Species: MOUSE, Strain/Sex: B6C3F1/FEMALE, Route: ORAL, Dose: 0, 80, 160 PPM IN DIET, Dose: 0, 80, 160 PPM IN DIET) “inactive; negative”; (Species: MOUSE, Strain/Sex: B6C3F1/MALE, Route: ORAL, Dose: 0, 80, 160 PPM IN DIET, Dose: 0, 80, 160 PPM IN DIET) “inactive; negative”; (Species: RAT, Strain/Sex: OSBORNE-MENDEL/FEMALE, Route: ORAL, Dose: 0, 23, 45 PPM IN DIET FOR 80 WK (STUDY DURATION: 112-113 WK), Dose: 0, 23, 45 PPM IN DIET FOR 80 WK (STUDY DURATION: 112-113 WK), Tumor Site: Type of Lesion: ADRENAL GLAND: CORTICAL ADENOMA OR CARCINOMA) “equivocal”; (Species: RAT, Strain/Sex: OSBORNE-MENDEL/MALE, Route: ORAL, Dose: 0, 32, 63 PPM IN DIET FOR 80 WK (STUDY DURATION: 112-113 WK), Dose: 0, 32, 63 PPM IN DIET FOR 80 WK (STUDY DURATION: 112-113 WK), Tumor Site: Type of Lesion: ADRENAL GLAND: CORTICAL ADENOMA OR CARCINOMA) “equivocal”.

Consider `COCCl`, for which the carcinogen call (Species: MOUSE, Strain/Sex: ICR/FEMALE, Route: SUBCUTANEOUS, Dose: 300 UG IN 0.05 ML NUJOL 1/WK FOR 685 D, Tumor Site: Type of Lesion: INJECTION SITE: SARCOMA) is “active; positive”.

For the molecule `C=CBr`, the carcinogen call reads like this: (Species: RAT, Strain/Sex: SPRAGUE-DAWLEY/FEMALE, Route: INHALATION, Dose: 10, 50, 250, 1250 PPM 6 HR/D 5/WK FOR 24 MO, Dose: 10, 50, 250, 1250 PPM 6 HR/D 5/WK FOR 24 MO, Tumor Site: Type of Lesion: LIVER: ANGIOSARCOMA, EAR (ZYMBAL GLAND): SQUAMOUS CELL CARCINOMA) “active; positive”; (Species: RAT, Strain/Sex: SPRAGUE-DAWLEY/MALE, Route: INHALATION, Dose: 10, 50, 250, 1250 PPM 6 HR/D 5/WK FOR 24 MO, Dose: 10, 50, 250, 1250 PPM 6 HR/D 5/WK FOR 24 MO, Tumor Site: Type of Lesion: LIVER: ANGIOSARCOMA, EAR (ZYMBAL GLAND): PAPILLOMA, SQUAMOUS CELL CARCINOMA) “active; positive”.

For the origin of these results see PubChem BioAssay AID1259411 (Chemical Carcinogenesis Research Information System (CCRIS), 2018).
